Test results published in ChEMBL document CHEMBL4837225, “Water-soluble derivatives of evodiamine: Discovery of evodiamine-10-phosphate as an orally active antitumor lead compound” (Eur J Med Chem, 2021).
pIC50: −log10 of the molar value. ≈ marks a conversion by molar mass, not a printed value. Calls of active or inactive are those of the source. The calls are words filed in the database; no cut-off is given here.

Columns and labels:
A549 = assay: Antiproliferative activity against human A549 cells assessed as inhibition of cell proliferation incubated for 72 hrs by CCK8 assay; type: functional, cell-based; conditions: A549, 72 h
HCT-116 [1] = assay: Antiproliferative activity against human HCT-116 cells assessed as inhibition of cell proliferation incubated for 72 hrs by CCK8 assay; type: functional, cell-based; conditions: HCT-116, 72 h
[2] = molecular target: DNA topoisomerase 2-alpha (Homo sapiens) (UniProt P11388); assay: Inhibition of TOP2 (unknown origin) assessed as formation of short DNA fragments using supercoiled plasmid DNA at 100 uM by ethidium bromide staining based gel
[3] = Solubility of the compound in double distilled water; type: physicochemical
MDA-MB-231 = assay: Antiproliferative activity against human MDA-MB-231 cells assessed as inhibition of cell proliferation incubated for 72 hrs by CCK8 assay; type: functional, cell-based; conditions: MDA-MB-231, 72 h
[4] = molecular target: T1, DNA topoisomerase 1 (Homo sapiens) (UniProt P11387); assay: Inhibition of TOP1 (unknown origin) assessed as decrease in relaxation of supercoiled DNA using pBR322 plasmid DNA as substrate at 100 uM by ethidium bromide staining based gel electrophoresis
T1 sequence (whole entry): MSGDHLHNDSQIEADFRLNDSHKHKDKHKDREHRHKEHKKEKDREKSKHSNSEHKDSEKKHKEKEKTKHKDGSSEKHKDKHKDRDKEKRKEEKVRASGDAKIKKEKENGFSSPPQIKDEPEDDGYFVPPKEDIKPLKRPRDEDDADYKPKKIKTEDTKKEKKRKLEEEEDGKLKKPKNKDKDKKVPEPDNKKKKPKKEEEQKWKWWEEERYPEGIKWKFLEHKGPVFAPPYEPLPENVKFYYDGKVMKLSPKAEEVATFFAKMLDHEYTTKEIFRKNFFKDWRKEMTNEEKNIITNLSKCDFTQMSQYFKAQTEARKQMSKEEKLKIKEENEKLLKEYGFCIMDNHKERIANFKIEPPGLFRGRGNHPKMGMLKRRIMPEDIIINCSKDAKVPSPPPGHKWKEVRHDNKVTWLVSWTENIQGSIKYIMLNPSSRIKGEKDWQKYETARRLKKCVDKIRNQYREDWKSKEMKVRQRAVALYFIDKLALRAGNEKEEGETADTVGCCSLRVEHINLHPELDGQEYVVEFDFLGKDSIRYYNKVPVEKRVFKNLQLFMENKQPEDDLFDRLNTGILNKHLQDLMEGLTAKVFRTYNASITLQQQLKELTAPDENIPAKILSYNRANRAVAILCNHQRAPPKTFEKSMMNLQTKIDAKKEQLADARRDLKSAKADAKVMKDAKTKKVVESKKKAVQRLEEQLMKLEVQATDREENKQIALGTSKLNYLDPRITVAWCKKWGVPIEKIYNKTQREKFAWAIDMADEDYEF

HCT-116 [5] = assay: Antitumor activity against human HCT-116 cells xenografted in BALB/c nude mouse assessed as inhibition of tumor growth at 16 mg/kg/day, ip BID administered for 21 days measured by caliper; type: functional, organism-based; conditions: time 21.0 day
[6] = Toxicity in BALB/c nude nude mouse xenografted with human HCT-116 cells assessed as decrease in body weight at 0.5 mg/kg/day, ip QD administered for 16 consecutive days; type: organism-based; conditions: in vivo, 384 h, time 16 day
HCT-116 [7] = assay: Antitumor activity against human HCT-116 cells xenografted in BALB/c nude mouse assessed as inhibition of tumor growth at 150 mg/kg, po BID measured by caliper relative to control; type: functional; conditions: HCT-116, po, read-out: TGI
HCT-116 [8] = assay: Antitumor activity against human HCT-116 cells xenografted in BALB/c nude mouse assessed as inhibition of tumor growth at 16 mg/kg, ip QD administered for 21 days measured by caliper; type: functional, organism-based; conditions: time 21.0 day
HCT-116 [9] = assay: Antitumor activity against human HCT-116 cells xenografted in BALB/c nude nude mouse assessed as tumor growth inhibition at 16 mg/kg/day, ip QD administered for 16 consecutive days measured by caliper relative to control; type: functional; conditions: HCT-116, ip, 384 h, time 16 day, read-out: TGI

Chain of DNA topoisomerase 2-alpha (Homo sapiens) (P11388 whole entry, the tested form may be a part): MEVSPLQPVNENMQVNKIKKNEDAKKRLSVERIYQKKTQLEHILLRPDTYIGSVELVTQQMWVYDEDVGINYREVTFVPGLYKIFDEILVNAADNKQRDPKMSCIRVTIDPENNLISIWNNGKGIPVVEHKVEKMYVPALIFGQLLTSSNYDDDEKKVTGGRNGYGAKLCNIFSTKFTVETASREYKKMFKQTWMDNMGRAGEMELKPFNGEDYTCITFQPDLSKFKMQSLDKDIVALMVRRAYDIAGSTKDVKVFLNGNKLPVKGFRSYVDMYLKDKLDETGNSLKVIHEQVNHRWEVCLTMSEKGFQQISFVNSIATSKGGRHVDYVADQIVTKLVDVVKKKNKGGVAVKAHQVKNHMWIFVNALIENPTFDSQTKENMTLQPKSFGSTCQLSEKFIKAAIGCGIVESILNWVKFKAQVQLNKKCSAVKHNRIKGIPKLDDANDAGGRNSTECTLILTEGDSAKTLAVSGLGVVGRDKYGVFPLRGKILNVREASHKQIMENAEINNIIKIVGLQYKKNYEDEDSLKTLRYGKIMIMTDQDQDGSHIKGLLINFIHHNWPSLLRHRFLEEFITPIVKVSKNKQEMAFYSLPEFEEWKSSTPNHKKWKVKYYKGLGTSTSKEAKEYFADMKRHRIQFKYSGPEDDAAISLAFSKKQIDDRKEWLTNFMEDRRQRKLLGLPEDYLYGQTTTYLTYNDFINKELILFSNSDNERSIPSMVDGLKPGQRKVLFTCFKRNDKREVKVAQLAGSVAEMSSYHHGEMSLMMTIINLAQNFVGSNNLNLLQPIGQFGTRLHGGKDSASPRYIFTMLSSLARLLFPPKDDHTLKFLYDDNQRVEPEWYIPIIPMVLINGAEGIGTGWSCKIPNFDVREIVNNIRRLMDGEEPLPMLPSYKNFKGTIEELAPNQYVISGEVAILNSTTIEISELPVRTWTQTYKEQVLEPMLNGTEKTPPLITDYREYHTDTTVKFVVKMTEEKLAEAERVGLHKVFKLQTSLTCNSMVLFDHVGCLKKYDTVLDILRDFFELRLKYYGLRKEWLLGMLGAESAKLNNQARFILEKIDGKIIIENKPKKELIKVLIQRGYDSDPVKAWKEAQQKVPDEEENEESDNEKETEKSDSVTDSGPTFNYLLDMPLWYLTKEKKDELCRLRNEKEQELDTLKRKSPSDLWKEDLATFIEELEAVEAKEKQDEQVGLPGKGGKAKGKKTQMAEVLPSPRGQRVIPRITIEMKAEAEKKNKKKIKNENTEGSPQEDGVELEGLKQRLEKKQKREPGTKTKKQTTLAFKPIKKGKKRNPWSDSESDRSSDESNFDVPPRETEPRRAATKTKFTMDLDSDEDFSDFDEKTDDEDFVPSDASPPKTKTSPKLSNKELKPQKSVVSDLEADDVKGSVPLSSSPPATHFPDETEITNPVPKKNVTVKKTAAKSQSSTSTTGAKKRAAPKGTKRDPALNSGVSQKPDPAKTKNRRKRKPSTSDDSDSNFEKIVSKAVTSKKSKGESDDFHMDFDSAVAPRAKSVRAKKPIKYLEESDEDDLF

CNCC(=O)Nc1ccc2[nH]c3c(c2c1)CCN1C(=O)c2ccccc2N(C)C31 (stereo not given)
pIC50 (A549): < 5.00 | pIC50 (HCT-116 [1]): 5.85 | inhibition [2]: Active | solubility [3]: 25 µg/mL (≈ 64.2 µM) | pIC50 (MDA-MB-231): 5.74

CC(O)C(N)C(=O)Nc1ccc2[nH]c3c(c2c1)CCN1C(=O)c2ccccc2N(C)C31 (stereo not given)
pIC50 (A549): < 5.00 | pIC50 (HCT-116 [1]): 5.80 | inhibition [2]: Active | solubility [3]: 11 µg/mL (≈ 26.2 µM) | pIC50 (MDA-MB-231): < 5.00

CN1c2ccccc2C(=O)N2CCc3c([nH]c4ccc(OC(=O)CCC(=O)OCCN5CCCCC5)cc34)C21 (stereo not given)
pIC50 (A549): 5.04 | pIC50 (HCT-116 [1]): > 8.52 | inhibition [2]: Active | solubility [3]: 18 µg/mL (≈ 33.9 µM) | pIC50 (MDA-MB-231): 6.17

CN1c2ccccc2C(=O)N2CCc3c([nH]c4ccc(NC(=O)C(N)Cc5ccc(O)cc5)cc34)C21 (stereo not given)
pIC50 (A549): < 5.00 | pIC50 (HCT-116 [1]): 5.90 | inhibition [2]: Active | solubility [3]: 12 µg/mL (≈ 24.9 µM) | pIC50 (MDA-MB-231): 6.26

CN1c2ccccc2C(=O)N2CCc3c([nH]c4ccc(OC(=O)CCC(=O)OCCN5CCOCC5)cc34)C21 (stereo not given)
pIC50 (A549): < 5.00 | pIC50 (HCT-116 [1]): > 8.52 | inhibition [2]: Active | solubility [3]: 17 µg/mL (≈ 31.9 µM) | pIC50 (MDA-MB-231): 7.70

CN1c2ccccc2C(=O)N2CCc3c([nH]c4ccc(N)cc34)C21 (stereo not given)
pIC50 (A549): 5.32 | pIC50 (HCT-116 [1]): 6.41 | inhibition [4]: inactive | inhibition [2]: Active | solubility [3]: 10 µg/mL (≈ 31.4 µM) | pIC50 (MDA-MB-231): 5.74 | TGI (HCT-116 [5]): inactive

CN1c2ccccc2C(=O)N2CCc3c([nH]c4ccc(NC(=O)C5CCC(=O)N5)cc34)C21 (stereo not given)
pIC50 (A549): < 5.00 | pIC50 (HCT-116 [1]): < 5.00 | inhibition [2]: Active | solubility [3]: 11 µg/mL (≈ 25.6 µM) | pIC50 (MDA-MB-231): < 5.00

CC[C@@]1(O)C(=O)OCc2c1cc1n(c2=O)Cc2cc3ccccc3nc2-1 [CAMPTOTHECIN]
pIC50 (A549): 6.77 | pIC50 (HCT-116 [1]): 7.77 | pIC50 (MDA-MB-231): 6.62

CN1c2ccccc2C(=O)N2CCc3c([nH]c4ccc(OC(=O)[C@@H](N)CO)cc34)C21 (stereo not given in full)
pIC50 (A549): 5.58 | pIC50 (HCT-116 [1]): > 8.52 | inhibition [4]: Active | inhibition [2]: Active | solubility [3]: 24 µg/mL (≈ 59 µM) | pIC50 (MDA-MB-231): 5.63

CN1c2ccccc2C(=O)N2CCc3c([nH]c4ccc(OC(=O)CCC(=O)O)cc34)C21 (stereo not given)
pIC50 (A549): 5.26 | pIC50 (HCT-116 [1]): > 8.52 | inhibition [2]: inactive | solubility [3]: 15 µg/mL (≈ 35.8 µM) | pIC50 (MDA-MB-231): 6.59

CN1c2ccccc2C(=O)N2CCc3c([nH]c4ccc(NC(=O)CN)cc34)C21 (stereo not given)
pIC50 (A549): 5.43 | pIC50 (HCT-116 [1]): 5.80 | inhibition [2]: Active | solubility [3]: 19 µg/mL (≈ 50.6 µM) | pIC50 (MDA-MB-231): 5.92

CN1c2ccccc2C(=O)N2CCc3c([nH]c4ccc(OC(=O)[C@@H]5CCCN5)cc34)C21 (stereo not given in full)
pIC50 (A549): 6.37 | pIC50 (HCT-116 [1]): 8.15 | Activity [6]: Toxic | inhibition in vivo at 150 mg/kg (HCT-116 [7]): 39% | Activity (HCT-116 [8]): inactive | inhibition [2]: Active | solubility [3]: 30 µg/mL (≈ 72 µM) | pIC50 (MDA-MB-231): 5.94 | inhibition in vivo at 16 mg/kg/day (HCT-116 [9]): 55%

CN1c2ccccc2C(=O)N2CCc3c([nH]c4ccc(OS(N)(=O)=O)cc34)C21 (stereo not given)
pIC50 (A549): 6.39 | pIC50 (HCT-116 [1]): 7.40 | inhibition [2]: Active | solubility [3]: 37 µg/mL (≈ 92.9 µM) | pIC50 (MDA-MB-231): 6.28
